Reference: US20240092761A1, “QUINAZOLINE COMPOUNDS AND METHODS OF USE” (IAMBIC THERAPEUTICS, INC., priority 2022, published 2024)

What was measured:
MCF-7 cells = experiment: Cell Growth Inhibition, MCF-7 (CellTiterGlo, 6 days); type: cell-based; settings: MCF-7, 6-day treatment, CellTiterGlo 2.0
Source text: (§1) MCF-7 and OVCAR-3 cells were used to evaluate the anti-proliferation activity of the CDK inhibitors. MCF-7 (ATCC, HTB-22) cells are epithelial cells from a patient with ER+ metastatic adenocarcinoma. OVCAR-3 (ATCC, HTB-161) cells were derived from malignant ascites of a patient with ovarian cancer and are known to have CCNE1 amplification. Both cell lines were maintained in RPMI media supplemented with 10% fetal bovine serum. For cell growth inhibition assay, CDK inhibitors in DMSO solution were dispensed with either Echo 655 (Beckman Coulter) or Tecan D300e (HP) into 384-well plates (Corning #3765) and the 384-well plates were UV-sterilized prior to the assay. The inhibitors were typically tested in the 10-10,000 nM concentration range with half-log serial dilutions. MCF-7 or OVCAR-3 (500 cells/30 μL/well) were added to each well using Multidrop Combi (ThermoFisher) using standard cassettes. The assay plates with cells were cultured at 37° C., 5% CO2 for 6 days. At the end of the 6-day treatment, 30 μL of CellTiterGlo 2.0 (Promega) was added to each well and the luminescent signal was read using CLARIOstar plus (BMG). The percentage of cell growth inhibition (% CGI) was calculated using the following formula % CGI=100−100×luminescencesample/luminescencecontrol. The half maximal inhibitory concentration (IC50) was determined by nonlinear curve fitting (four parameters, variable slope).

CDK1/Cyclin B1 = CDK1/Cyclin B1 (Homo sapiens (Human), UniProt P06493); experiment: CDK1/Cyclin B1 ADP-Glo Kinase Assay; type: biochemical; settings: 80 uM ATP
Protocol: CDK1/Cyclin B1 ADP-Glo Kinase Assay
(§2) The purpose of CDK1/Cyclin B1 assay is to evaluate the inhibition (% inhibition and IC50 values) of small molecule inhibitors by using a Luminescent based ADP-Glo assay. CDK1/Cyclin B1 catalyzes the production of ADP from ATP. ADP-Glo assay monitors ADP producing biochemical reactions. ADP-Glo is performed in 2 steps upon completion of kinase reaction: a combined termination of kinase reaction and depletion of remaining ATP in the first step, and conversion of generated ADP to ATP and the newly produced ATP to light output using luciferase/luciferin reaction in the second step. The luminescent signal generated is proportional to the ADP concentration produced and is correlated with the kinase activity. CDK1/Cyclin B1 was purchased from Carna (Cat 04-102). Typical reaction solutions (10 uL final reaction volume) contained 2% DMSO (f inhibitor), 10 mM MgCl2, 1 mM EGTA, 0.05% BSA, 2 mM DTT, 80 uM ATP (ATP Km=78.6 uM), 0.01% Brig-35, 0.75 uM substrate, and 4.917 nM CDK1/Cyclin Bl enzyme complex in 50 mM HEPES buffer at pH 7.5. The assay was initiated with the addition of ATP-containing substrate solution, following a 30-minute pre-incubation of enzyme and inhibitor at room temperature in the reaction mixture. The reaction was stopped after 90 minutes at room temperature by the addition of 10 uL of ADP-GLO Reagent. After a 90 minute incubation, 20 uL of Kinase Detection Reagent was added. Samples were incubated for 40 minutes, after which plate well luminescence was measured on a Envision microplate reader. The IC50 determinations were made from a plot of the fractional velocity as a function of inhibitor concentration fit to the 4 parameters IC50 equation.

CDK4/Cyclin D1 = CDK4/Cyclin D1 (Homo sapiens (Human), UniProt P11802); experiment: CDK4/Cyclin D1 CHEF Assay (AQT0258 peptide); type: biochemical; settings: 200 uM ATP, read-out: CDK4/ CyclinD1 AQT IC50
Source text: CDK4/Cyclin D1 CHEF Assay
The purpose of CDK4/Cyclin Dl assay is to evaluate the inhibition (% inhibition and IC50 values) of small molecule inhibitors by using a Chelation-Enhance Fluorescence (CHEF) assay. In a CHEF assay, phosphorylation of a peptide substrate results in proportional increase in fluorescence. CHEF kinase assay use peptide substrates containing a synthetic alpha-amino acid with a side chain bearing an 8-hydroxyquinoline derivative (sulfonamido-oxide, Sox). Upon phosphorylation of a nearby serine, threonine or tyrosine and in the presence of Mg(II), the spectral properties of the Sox residue are altered, emitting 485 nm wavelength light when excited with a 360 nm wavelength light source. CDK4/Cyclin D1 catalyzes the phosphoryl transfer to the SOX-labeled substrate peptide AQT0258 from Assayquant Technologies. Typical reaction solutions contained 2% DMSO (+/−inhibitor), 10 mM MgCl2, 1 mM DTT, 200 uM ATP (ATP Km=195.2 uM), 0.012% Brig-35, 10 uM AQT0258 peptide, 0.02% BSA, 1% Glycerol, 0.55 mM EGTA, 2.5 nM CDK4/Cyclin D1 in 54 mM HEPES buffer at pH 7.5. The reaction was initiated with the addition of substrate solution, following a 30-minute pre-incubation of enzyme and inhibitor at 22° C. in the reaction mix. Reactions were allowed to proceed for 3 hrs at 22° C., followed by fluorescence read of the reaction. The IC50 determinations were made from a plot of the fractional velocity as a function of inhibitor concentration fit to the 4 parameters IC50 equation.

CDK6/Cyclin D3 = CDK6/Cyclin D3 (Homo sapiens (Human), UniProt Q00534); experiment: CDK6/Cyclin D3 ADP-Glo Kinase Assay; type: biochemical; settings: 100 uM ATP, read-out: CDK6/ CyclinD3 IC50
Protocol: CDK6/Cyclin D3 ADP-Glo Kinase Assay
as §2, with “of the CDK6/Cyclin D3” for “of CDK1/Cyclin B1”, “values) in the presence” for “values)”, “assay. CDK6/Cyclin D3” for “assay. CDK1/Cyclin B1”, “activity. CDK6/Cyclin D3” for “activity. CDK1/Cyclin B1”, “from Carna. […]” for “from Carna (Cat 04-102). Typical reaction solutions (10 uL final reaction volume) contained 2% DMSO (f inhibitor), 10 mM MgCl2, 1 mM EGTA, 0.05% BSA, 2 mM DTT, 80 uM ATP (ATP Km=78.6 uM), 0.01% Brig-35, 0.75 uM substrate, and 4.917 nM CDK1/Cyclin Bl enzyme complex in 50 mM HEPES buffer at pH 7.5.”, “a 90-minute” for “a 90 minute”

[1] = molecular target: CDK2/Cyclin E1 full length (Homo sapiens (Human), UniProt P24941); experiment: CDK2/Cyclin E1 Full Length ADP-Glo Kinase Assay; type: biochemical; settings: 20 uM ATP, read-out: CDK2/ CyclinE1 IC50
Protocol: CDK2/Cyclin E1 Full Length ADP-Glo Kinase Assay
The purpose of CDK2/Cyclin E1 assay is to evaluate the inhibition (% inhibition and IC50 values) of small molecule inhibitors by using a Luminescent based ADP-Glo assay. CDK2/Cyclin E1 full length catalyzes the production of ADP from ATP. ADP-Glo assay monitors ADP producing biochemical reactions. ADP-Glo is performed in 2 steps upon completion of kinase reaction: a combined termination of kinase reaction and depletion of remaining ATP in the first step, and conversion of generated ADP to ATP and the newly produced ATP to light output using luciferase/luciferin reaction in the second step. The luminescent signal generated is proportional to the ADP concentration produced and is correlated with the kinase activity. CDK2/Cyclin E1 was purchased from Eurofins (Cat 14-475M). Typical reaction solutions (10 uL final reaction volume) contained 2% DMSO (f inhibitor), 10 mM MgCI2, 1 mM EGTA, 0.05% BSA, 2 mM DTT, 20 uM ATP (ATP Km=64.78 uM), 0.01% Brig-35, 0.75 uM substrate, and 0.328 nM wild-type full length CDK2/Cyclin E1 enzyme complex in 50 mM HEPES buffer at pH 7.5. The assay was initiated with the addition of ATP-containing substrate solution, following a 30-minute pre-incubation of enzyme and inhibitor at room temperature in the reaction mixture. The reaction was stopped after 90 minutes at room temperature by the addition of 10 uL of ADP-GLO Reagent. After a 90 minute incubation, 20 uL of Kinase Detection Reagent was added. Samples were incubated for 40 minutes, after which plate well luminescence was measured on a Envision microplate reader. The IC50 determinations were made from a plot of the fractional velocity as a function of inhibitor concentration fit to the 4 parameters IC50 equation.

OVCAR-3 cells = experiment: Cell Growth Inhibition, OVCAR-3 (CellTiterGlo, 6 days); type: cell-based; settings: OVCAR-3, 6-day treatment, CellTiterGlo 2.0
Source text: as §1

Sequence of CDK1/Cyclin B1 (P06493 whole entry): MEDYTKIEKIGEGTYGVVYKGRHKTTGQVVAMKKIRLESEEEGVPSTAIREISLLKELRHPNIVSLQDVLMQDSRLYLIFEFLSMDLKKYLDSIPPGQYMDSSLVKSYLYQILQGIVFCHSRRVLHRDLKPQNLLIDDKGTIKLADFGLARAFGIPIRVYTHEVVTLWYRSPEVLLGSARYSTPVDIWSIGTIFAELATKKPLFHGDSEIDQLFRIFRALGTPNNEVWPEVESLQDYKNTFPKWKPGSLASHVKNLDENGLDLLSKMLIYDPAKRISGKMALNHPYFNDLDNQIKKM
Sequence of CDK1/Cyclin B1 (P14635 whole entry partner): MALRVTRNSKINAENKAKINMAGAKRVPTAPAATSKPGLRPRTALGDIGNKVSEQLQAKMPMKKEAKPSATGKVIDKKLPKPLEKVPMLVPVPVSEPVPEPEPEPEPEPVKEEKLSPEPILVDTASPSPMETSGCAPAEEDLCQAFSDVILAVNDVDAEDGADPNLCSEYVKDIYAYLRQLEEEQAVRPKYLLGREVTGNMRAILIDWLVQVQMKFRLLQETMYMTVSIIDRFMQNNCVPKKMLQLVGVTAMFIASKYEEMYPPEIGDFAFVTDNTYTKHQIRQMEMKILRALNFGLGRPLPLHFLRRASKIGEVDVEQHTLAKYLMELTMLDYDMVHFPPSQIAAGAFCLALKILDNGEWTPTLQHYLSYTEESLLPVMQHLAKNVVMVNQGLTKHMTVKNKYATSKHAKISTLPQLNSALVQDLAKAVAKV
Sequence of CDK4/Cyclin D1 (P11802 whole entry): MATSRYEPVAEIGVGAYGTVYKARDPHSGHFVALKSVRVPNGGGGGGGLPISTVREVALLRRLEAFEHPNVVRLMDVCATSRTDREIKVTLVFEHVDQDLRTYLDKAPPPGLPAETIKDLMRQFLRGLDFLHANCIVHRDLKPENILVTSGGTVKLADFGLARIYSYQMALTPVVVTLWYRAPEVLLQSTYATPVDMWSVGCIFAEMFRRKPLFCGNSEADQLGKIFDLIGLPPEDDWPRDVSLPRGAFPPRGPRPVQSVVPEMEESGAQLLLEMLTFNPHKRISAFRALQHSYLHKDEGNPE
Sequence of CDK4/Cyclin D1 (P24385 whole entry partner): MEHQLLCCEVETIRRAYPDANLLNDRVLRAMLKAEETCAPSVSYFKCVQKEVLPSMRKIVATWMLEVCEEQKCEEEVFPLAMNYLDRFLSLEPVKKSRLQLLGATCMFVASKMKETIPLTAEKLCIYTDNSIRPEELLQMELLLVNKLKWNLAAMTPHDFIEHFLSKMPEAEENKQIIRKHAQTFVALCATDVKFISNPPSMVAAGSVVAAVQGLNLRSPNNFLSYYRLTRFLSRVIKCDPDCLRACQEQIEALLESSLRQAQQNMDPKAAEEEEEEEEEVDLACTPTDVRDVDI
Sequence of CDK6/Cyclin D3 (Q00534 whole entry): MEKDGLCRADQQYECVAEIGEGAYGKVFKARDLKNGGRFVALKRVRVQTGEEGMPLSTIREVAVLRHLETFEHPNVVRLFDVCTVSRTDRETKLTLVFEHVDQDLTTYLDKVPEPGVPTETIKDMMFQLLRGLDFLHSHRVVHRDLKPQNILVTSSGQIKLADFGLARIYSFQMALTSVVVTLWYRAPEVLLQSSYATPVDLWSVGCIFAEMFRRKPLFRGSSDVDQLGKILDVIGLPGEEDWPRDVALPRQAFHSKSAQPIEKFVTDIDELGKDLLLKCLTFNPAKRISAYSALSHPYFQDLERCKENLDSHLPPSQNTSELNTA
Sequence of CDK6/Cyclin D3 (P30281 whole entry partner): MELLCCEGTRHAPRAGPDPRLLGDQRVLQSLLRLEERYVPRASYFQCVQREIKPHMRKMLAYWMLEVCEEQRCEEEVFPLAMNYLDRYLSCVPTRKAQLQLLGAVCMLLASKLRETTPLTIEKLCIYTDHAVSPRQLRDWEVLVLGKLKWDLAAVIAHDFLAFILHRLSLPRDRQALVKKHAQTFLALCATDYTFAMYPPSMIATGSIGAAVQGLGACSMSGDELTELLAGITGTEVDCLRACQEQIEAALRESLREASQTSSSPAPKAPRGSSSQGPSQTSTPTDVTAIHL

FC(F)c1cc(N2CC3(CCNC3)C2)c2nc(NC3CCN(c4ncc(C5CC5)cn4)CC3)ncc2c1 [Example 68, N-(1-(5-cyclopropylpyrimidin-2-yl)piperidin-4-yl)-6-(difluoromethyl)-8-(2,6-diazaspiro[3.4]octan-2-yl)quinazolin-2-amine] was tested, and the IC50 (MCF-7 cells; Homo sapiens, MCF7, 144 h) was 500 to 2000 nM, the IC50 (CDK1/Cyclin B1) was < 200 nM and the IC50 (CDK4/Cyclin D1) was < 200 nM. The IC50 (CDK6/Cyclin D3) was 200 to 500 nM, the IC50 [1] was < 200 nM and the IC50 (OVCAR-3 cells; Homo sapiens, 144 h) was 500 to 2000 nM.
With CS(=O)(=O)N1CCC(Nc2ncc3cc(C(F)F)cc(N4CC5(C4)CN(C4CC4)C5)c3n2)CC1 [Example 69, 8-(6-cyclopropyl-2,6-diazaspiro[3.3]heptan-2-yl)-6-(difluoromethyl)-N-(1-(methylsulfonyl)piperidin-4-yl)quinazolin-2-amine] the IC50 (MCF-7 cells; Homo sapiens, MCF7, 144 h) was 200 to 500 nM, the IC50 (CDK1/Cyclin B1) was 200 to 500 nM and the IC50 (CDK4/Cyclin D1) was < 200 nM. The IC50 (CDK6/Cyclin D3) was < 200 nM, the IC50 [1] was < 200 nM and the IC50 (OVCAR-3 cells; Homo sapiens, 144 h) was 500 to 2000 nM.
In the case of CS(=O)(=O)N1CCC(Nc2ncc3cc(C(F)F)cc(C4CC5(CCNC5)C4)c3n2)CC1 (stereo not drawn) [Example 70, 6-(difluoromethyl)-N-(1-(methylsulfonyl)piperidin-4-yl)-8-(6-azaspiro[3.4]octan-2-yl)quinazolin-2-amine], the IC50 (MCF-7 cells; Homo sapiens, MCF7, 144 h) is reported as 200 to 500 nM, the IC50 (CDK1/Cyclin B1) is reported as < 200 nM and the IC50 (CDK4/Cyclin D1) is reported as < 200 nM. The IC50 (CDK6/Cyclin D3) was < 200 nM, the IC50 [1] was < 200 nM and the IC50 (OVCAR-3 cells; Homo sapiens, 144 h) was 200 to 500 nM.
In the case of CN1CC2(CCN(c3cc(C(F)F)cc4cnc(NC5CCN(c6ncc7ccn(C8CC8)c7n6)CC5)nc34)C2)C1 [Example 71, N-(1-(7-cyclopropyl-7H-pyrrolo[2,3-d]pyrimidin-2-yl)piperidin-4-yl)-6-(difluoromethyl)-8-(2-methyl-2,6-diazaspiro[3.4]octan-6-yl)quinazolin-2-amine], the IC50 (MCF-7 cells; Homo sapiens, MCF7, 144 h) is reported as 500 to 2000 nM, the IC50 (CDK1/Cyclin B1) is reported as > 2000 nM and the IC50 (CDK4/Cyclin D1) is reported as < 200 nM. The IC50 (CDK6/Cyclin D3) was 500 to 2000 nM, the IC50 [1] was 200 to 500 nM and the IC50 (OVCAR-3 cells; Homo sapiens, 144 h) was 500 to 2000 nM.
In the case of CS(=O)(=O)N1Cc2ccc(Nc3ncc4cc(C(F)F)cc(N5CC6(C5)CN(C5CC5)C6)c4n3)cc2C1 [Example 72, 8-(6-cyclopropyl-2,6-diazaspiro[3.3]heptan-2-yl)-6-(difluoromethyl)-N-(2-(methylsulfonyl)isoindolin-5-yl)quinazolin-2-amine], the IC50 (MCF-7 cells; Homo sapiens, MCF7, 144 h) is reported as 500 to 2000 nM, the IC50 (CDK1/Cyclin B1) is reported as < 200 nM and the IC50 (CDK4/Cyclin D1) is reported as < 200 nM. The IC50 (CDK6/Cyclin D3) was < 200 nM, the IC50 [1] was < 200 nM and the IC50 (OVCAR-3 cells; Homo sapiens, 144 h) was > 2000 nM.
In the case of CN1CC2(CCN(c3cc(C(F)F)cc4cnc(Nc5ccc6c(c5)CN(S(C)(=O)=O)C6)nc34)C2)C1 [Example 73, 6-(difluoromethyl)-8-(2-methyl-2,6-diazaspiro[3.4]octan-6-yl)-(methylsulfonyl)N-(2-isoindolin-5-yl)quinazolin-2amine], the IC50 (MCF-7 cells) is reported as 200 to 500 nM, the IC50 (CDK1/Cyclin B1) is reported as < 200 nM and the IC50 (CDK4/Cyclin D1) is reported as < 200 nM. For the same compound, the IC50 (CDK6/Cyclin D3) was < 200 nM, the IC50 [1] was < 200 nM and the IC50 (OVCAR-3 cells) was 500 to 2000 nM.
O=S(=O)(C1CC1)N1CCC(Nc2ncc3cc(C(F)F)cc(N4CC5(CCNC5)C4)c3n2)CC1 [Example 74, N-(1-(cyclopropylsulfonyl)piperidin-4-yl)-6-(difluoromethyl)-8-(2,6-diazaspiro[3.4]octan-2-yl)quinazolin-2-amine] was tested, and the IC50 (MCF-7 cells; Homo sapiens, MCF7, 144 h) was 200 to 500 nM, the IC50 (CDK1/Cyclin B1) was < 200 nM and the IC50 (CDK4/Cyclin D1) was < 200 nM. For the same compound, the IC50 (CDK6/Cyclin D3) was < 200 nM, the IC50 [1] was < 200 nM and the IC50 (OVCAR-3 cells; Homo sapiens, 144 h) was 200 to 500 nM.
With Cn1ncc2cc(Nc3ncc4cc(C(F)F)cc(N5CC6(CCNC6)C5)c4n3)ccc21 [Example 75, 6-(difluoromethyl)-N-(1-methyl-1H-indazol-5-yl)-8-(2,6-diazaspiro[3.4]octan-2-yl)quinazolin-2-amine] the IC50 (MCF-7 cells; Homo sapiens, MCF7, 144 h) was 500 to 2000 nM, the IC50 (CDK1/Cyclin B1) was < 200 nM and the IC50 (CDK4/Cyclin D1) was < 200 nM. The IC50 (CDK6/Cyclin D3) was < 200 nM, the IC50 [1] was < 200 nM and the IC50 (OVCAR-3 cells; Homo sapiens, 144 h) was 500 to 2000 nM.
With COCCN1CC2(C1)CN(c1cc(C(F)F)cc3cnc(NC4CCN(S(=O)(=O)C5CC5)CC4)nc13)C2 [Example 76, N-(1-(cyclopropylsulfonyl)piperidin-4-yl)-6-(difluoromethyl)-8-(6-(2-methoxyethyl)-2,6-diazaspiro[3.3]heptan-2-yl)quinazolin-2-amine] the IC50 (MCF-7 cells; Homo sapiens, MCF7, 144 h) was 500 to 2000 nM, the IC50 (CDK1/Cyclin B1) was 500 to 2000 nM and the IC50 (CDK4/Cyclin D1) was < 200 nM. For the same compound, the IC50 (CDK6/Cyclin D3) was < 200 nM, the IC50 [1] was < 200 nM and the IC50 (OVCAR-3 cells; Homo sapiens, 144 h) was 500 to 2000 nM.
